Data reported in patent US20220403431A1, “GLYCOMINIMIZED BACTERIAL HOST CELLS” (INBIOSE N.V., priority 2020, published 2022).

Legend:
[1] = test system: glycominimized (GM) E. coli strain; experiment: Growth rate and MIC in minimal medium with increasing antibiotic concentrations, GM strain compared to WT strain; type: cell-based, Escherichia coli K-12 MG1655
Method: Cells were cultured in Greiner Bio-One (Vilvoorde, Belgium) polystyrene F-bottom 96 well plates using the defined medium described above and inoculated 1% from precultures, which were grown in a carbon limiting 2.2 g/L glucose H2O defined medium variant. For the minimum inhibitory concentration (MIC) determination and osmotic stress sensitivity experiments, antibiotics resp. salts were supplemented to the medium in a 100 mL volumetric flask and subsequently filter sterilized using a 0,22 m Corning filter system. Each strain was grown in multiple wells of the 96-well plate as biological replicates. These final 96-well culture plates were then incubated at 30° C. on an orbital shaker at 800 rpm for 72h, or longer
Cell density of the cultures was frequently monitored by measuring optical density at 600 nm (Implen Nanophotometer NP80, Westburg, Belgium) or with a Spark 1OM microplate reader (Tecan, Switzerland).
The minimum inhibitory concentration (MIC) was determined as the lowest concentration of an antibiotic where the growth rate was less or equal than 10% of the growth rate when no antibiotic was added.
In this experiment, the growth rate was measured for both the wildtype and the GM strain when grown in media containing increasing antibiotic concentrations.

[2] = test system: glycominimized (GM) E. coli strain; experiment: Osmotic stress sensitivity assay, GM strain compared to WT strain; type: cell-based, Escherichia coli K-12 MG1655; conditions: minimal medium
Method: Cells were cultured in Greiner Bio-One (Vilvoorde, Belgium) polystyrene F-bottom 96 well plates using the defined medium described above and inoculated 1% from precultures, which were grown in a carbon limiting 2.2 g/L glucose H2O defined medium variant. For the minimum inhibitory concentration (MIC) determination and osmotic stress sensitivity experiments, antibiotics resp. salts were supplemented to the medium in a 100 mL volumetric flask and subsequently filter sterilized using a […] Corning filter system. Each strain was grown in multiple wells of the 96-well plate as biological replicates. These final 96-well culture plates were then incubated at 30° C. on an orbital shaker at 800 rpm for 72h, or longer
The maximal growth rate (Max) was calculated based on the observed optical densities at 600 nm using the R package grofit.
To test the osmotic stress sensitivity of an E. coli strain, a concentration array of KCl, NaCl and sucrose was applied, and growth of the strain recorded. The growth rate was calculated and plotted in function of the concentration of each solute as well as of the osmotic pressure. The osmotic pressure π is calculated as π=i*C*R*T whereby i is the dimensionless Van't Hoff index, C the concentration of the solute (mol/L), R the ideal gas constant and T the temperature (K). For salts that dissociate in water, the Van't Hoff index is the sum of all ions originating from one molecule.
Since the semi-permeable membrane of the GM strain is severely altered compared to that of the WT strain, the osmotic sensitivity of both strains was compared toward KCl, NaCl and sucrose.

[3] = at 5 g/L concentrations of the salt solutes

For `CC[C@H]1OC(=O)[C@H](C)[C@@H](O[C@H]2C[C@@](C)(OC)[C@@H](O)[C@H](C)O2)[C@H](C)[C@@H](O[C@@H]2O[C@H](C)C[C@H](N(C)C)[C@H]2O)[C@](C)(O)C[C@@H](C)C(=O)[C@H](C)[C@@H](O)[C@]1(C)O` [erythromycin], the “minimum inhibitory concentration (MIC), GM strain vs WT strain” value ([1]; MIC = lowest concentration where growth rate is less or equal than 10% of growth rate without antibiotic, both strains compared) was “similar” and the “sensitivity of the GM strain to the antibiotic compared to the WT strain (relative specific growth rate, FIG. 1)” value ([1]; minimal medium, increasing antibiotic concentrations, GM vs WT strain) was “similarly sensitive”.

In the case of `[Cl-].[K+]` [KCl], the “osmotic sensitivity of the GM strain compared to the WT strain (relative specific growth rate, FIG. 2)” value [2, 3] is reported as “equally sensitive”.

For `[Cl-].[Na+]` [NaCl], the “osmotic sensitivity of the GM strain compared to the WT strain (relative specific growth rate, FIG. 2)” value [2, 3] was “equally sensitive”.

With `OC[C@H]1O[C@@](CO)(O[C@H]2O[C@H](CO)[C@@H](O)[C@H](O)[C@H]2O)[C@@H](O)[C@@H]1O` [sucrose] the “osmotic sensitivity of the GM strain compared to the WT strain (relative specific growth rate, FIG. 2)” value ([2]; up till 64 g/L sucrose) was “equally sensitive”.
